Data set [1] in a line: Metabolites of heptylphysostigmine (dog urine after oral dosing; canine liver microsomes). As to conditions: mammalian metabolites. The format is in vivo. On the procedure:
The foregoing metabolites were originally isolated from dog urine following oral dosing with trimethyl-1,3a,8-hexahydro-1,2,3,3a,8,8a-pyrrol-[2,3-b]indole-5(3aS,8aR)heptylcarbamate at dosage levels of 1 mg/kg/day. Some of these compounds were also isolated from an incubation mixture of canine liver microsomes and trimethyl-1,3a,8-hexahydro-1,2,3,3a,8,8a-pyrrol[2,3-b]indole-5(3aS,8aR)-heptylcarbamate at a concentration of 10 μM in the presence of MgCl2 and NADPH in a buffer of approximately neutral pH at approximately 30°-40° C. The compounds were isolated from the biological matrix by selective solid phase or solvent extraction and purified by liquid chromatography (LC) using different mobile phase conditions. The procedures and the results of these experiments are noted in Examples 1-3.
Incubation of heptylphysostigmine with dog liver microsomes or 9,000×g supernatant fractions was performed to generate metabolites. The incubation mixture contained 100 μmoles of potassium phosphate, pH 7.4, 3 μmoles of MgCl2, 0.5 μmole of NADPH, 1 mg microsomal or 4 mg S9 protein and 10 nmols of ^3 H-heptylphysostigmine in a final volume of 1.0 ml. The incubations were carried out at 37° C. and 120 rpm for 10, 30 or 60 minutes. At the end of the incubation period, metabolites were extracted with a 2:1 mixture of ethyl acetate and acetone. […]
A general note: Liver microsomes are a subcellular fraction often used to study metabolism.

For data set [2] the following is noted: Somani et al., 1989; cited from earlier work.
The conditions of data set [3]: background statement, cited from earlier work.

In the case of `CCCCCCCNC(=O)Oc1ccc2c(c1)[C@]1(C)CCN(C)[C@@H]1N2C` [heptylphysostigmine, trimethyl-1,3a,8-hexahydro-1,2,3,3a,8,8a-pyrrol[2,3-b]indole-5(3aS,8aR) heptylcarbamate], in data set [1], the metabolites discovered entry was “eseroline and eseroline glucuronide were also discovered among the mammalian metabolites”.
With `CNC(=O)Oc1ccc2c(c1)[C@]1(C)CCN(C)[C@@H]1N2C` [physostigmine, trimethyl-1,3a,8-hexahydro-1,2,3,3a,8,8a-pyrrol[2,3-b]indole-5(3aS,8aR)methylcarbamate], the metabolites reported entry in data set [2] is “metabolized to eseroline and at least three other unknown metabolites”. Further, the half-life of effect entry in data set [3] is reported as “short half-life of effect”. For the same molecule, in data set [3] (particularly towards the digestive system), the side-effects result is “severe dose-limiting side-effects”.

(Values after patent US5206260A, “Hexahydropyrrolo[2,3-b]indole derivatives” (priority 1991, dated 1993).)
